# In US20240368135A1 (VERTEX PHARMACEUTICALS INCORPORATED, priority 2021, published 2024):
# Target: human NaV 1.8 (Homo sapiens, UniProt Q9Y5Y9)
# Experiment: E-VIPR assay detecting and measuring NaV inhibition properties
# Type: cell-based
# Settings: HEK cells expressing truncated human NaV 1.8; no human serum; read-out: IC50 in the E-VIPR Assay
# Summary of the method: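 Membrane potential was followed by coumarin/oxonol FRET during electrical field stimulation of matrigel-seeded HEK cells carrying truncated human NaV1.8 plus KIR2.1. Dosing used 11 points, 3-fold steps, top 300 nM final, 0.625% DMSO, with or without 25% human serum.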
# Sequence of human NaV 1.8 (Q9Y5Y9 126-399 limits assumed): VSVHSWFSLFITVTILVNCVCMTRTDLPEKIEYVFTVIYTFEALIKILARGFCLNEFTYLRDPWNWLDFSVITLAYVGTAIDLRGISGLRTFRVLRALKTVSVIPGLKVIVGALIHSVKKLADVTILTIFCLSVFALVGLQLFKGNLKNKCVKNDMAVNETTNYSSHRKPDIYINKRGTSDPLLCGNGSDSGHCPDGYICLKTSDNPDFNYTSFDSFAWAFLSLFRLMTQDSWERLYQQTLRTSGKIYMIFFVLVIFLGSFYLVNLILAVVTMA
# Sequence of human NaV 1.8 (Q9Y5Y9 660-890 limits assumed): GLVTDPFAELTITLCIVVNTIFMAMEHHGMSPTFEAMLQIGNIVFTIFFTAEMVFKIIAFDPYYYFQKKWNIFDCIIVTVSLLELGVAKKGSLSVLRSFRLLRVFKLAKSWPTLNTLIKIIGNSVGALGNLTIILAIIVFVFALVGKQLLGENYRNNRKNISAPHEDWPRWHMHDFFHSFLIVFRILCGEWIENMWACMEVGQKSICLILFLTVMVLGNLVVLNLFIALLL
# Sequence of human NaV 1.8 (Q9Y5Y9 1148-1722 limits assumed): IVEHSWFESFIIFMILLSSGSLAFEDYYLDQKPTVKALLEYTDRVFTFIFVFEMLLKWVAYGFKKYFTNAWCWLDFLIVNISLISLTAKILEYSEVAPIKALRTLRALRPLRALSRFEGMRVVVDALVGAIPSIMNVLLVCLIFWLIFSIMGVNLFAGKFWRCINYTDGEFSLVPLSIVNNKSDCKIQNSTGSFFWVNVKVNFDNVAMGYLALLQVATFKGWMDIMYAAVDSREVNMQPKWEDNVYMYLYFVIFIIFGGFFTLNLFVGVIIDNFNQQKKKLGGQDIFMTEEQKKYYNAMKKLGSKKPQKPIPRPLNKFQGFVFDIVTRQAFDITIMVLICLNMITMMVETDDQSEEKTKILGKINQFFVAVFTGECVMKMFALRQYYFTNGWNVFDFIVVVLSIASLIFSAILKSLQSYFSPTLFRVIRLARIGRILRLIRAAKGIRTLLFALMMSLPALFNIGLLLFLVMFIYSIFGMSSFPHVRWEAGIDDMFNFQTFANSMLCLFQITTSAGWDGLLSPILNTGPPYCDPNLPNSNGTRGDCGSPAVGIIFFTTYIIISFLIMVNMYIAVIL
row,SMILES,IC50 [µM]
1,"Cc1nocc1NC(=O)[C@@H]1O[C@@](C)(C(F)(F)F)[C@@H](C)[C@H]1c1ccc(F)c(F)c1OCCN1CC2CC(C1)O2 [Compound 633, (2R,3S,4S,5R)-3-(2-(2-(6-oxa-3-azabicyclo[3.1.1]heptan-3-yl)ethoxy)-3,4-difluorophenyl)-4,5-dimethyl-N-(3-methylisoxazol-4-yl)-5-(trifluoromethyl)tetrahydrofuran-2-carboxamide]",0.01 to 0.1
2,"C[C@H]1[C@@H](c2ccc(F)c(F)c2O[C@H]2C[C@@H](O)C2)[C@H](C(=O)Nc2cncc(F)c2)O[C@@]1(C)C(F)(F)F [Compound 660, (2R,3S,4S,5R)-3-(3,4-difluoro-2-((1S,3R)-3-hydroxycyclobutoxy)phenyl)-N-(5-fluoropyridin-3-yl)-4,5-dimethyl-5-(trifluoromethyl)tetrahydrofuran-2-carboxamide]",0.01 to 0.1
3,"CC(C)Oc1c([C@@H]2[C@@H](C(=O)Nc3ccnc(S(C)(=N)=O)c3)O[C@](C)(C(F)(F)F)[C@@H]2C)ccc(F)c1F (single isomer, unassigned) [Compound 118]",≥ 1
4,"COc1c([C@H]2[C@H](C(=O)Nc3ccnc(C[C@H](O)CO)c3)O[C@@](C)(C(F)(F)F)[C@H]2C)ccc(F)c1F [Compound 333, (2R,3S,4S,5R)-3-(3,4-difluoro-2-methoxy-phenyl)-N-[2-[(2S)-2,3-dihydroxypropyl]-4-pyridyl]-4,5-dimethyl-5-(trifluoromethyl)tetrahydrofuran-2-carboxamide]",< 0.01
5,"COc1c([C@H]2[C@H](C(=O)Nc3cnnc(N4C(=O)CN(C)C[C@H]4C)c3)O[C@@](C)(C(F)(F)F)[C@H]2C)ccc(F)c1F [Compound 384, (2R,3S,4S,5R)-3-(3,4-difluoro-2-methoxyphenyl)-N-(6-((R)-2,4-dimethyl-6-oxopiperazin-1-yl)pyridazin-4-yl)-4,5-dimethyl-5-(trifluoromethyl)tetrahydrofuran-2-carboxamide]",< 0.01
6,"COc1c([C@H]2[C@H](C(=O)Nc3ccc(C(=O)N(C)O)nc3)O[C@@](C)(C(F)(F)F)[C@H]2C)ccc(F)c1F [Compound 374, 5-[[(2R,3S,4S,5R)-3-(3,4-difluoro-2-methoxy-phenyl)-4,5-dimethyl-5-(trifluoromethyl)tetrahydrofuran-2-carbonyl]amino]-N-hydroxy-N-methyl-pyridine-2-carboxamide]",0.01 to 0.1
7,"COc1c(C2C(C(=O)Nc3cncnc3)OC(C)(C(F)(F)F)C2C)ccc(F)c1F (single isomer, unassigned) [Compound 37, 3-(3,4-difluoro-2-methoxy-phenyl)-4,5-dimethyl-N-pyrimidin-5-yl-5-(trifluoromethyl)tetrahydrofuran-2-carboxamide]",≥ 1
8,"COc1c([C@H]2[C@H](C(=O)Nc3ccnc([C@H](O)[C@@H](C)O)c3)O[C@@](C)(C(F)(F)F)[C@H]2C)ccc(F)c1F (single isomer, unassigned) [Compound 203, rel-(2R*,3S*,4S*,5R*)-3-(3,4-difluoro-2-methoxyphenyl)-N-(2-((1S,2R)-1,2-dihydroxypropyl)pyridin-4-yl)-4,5-dimethyl-5-(trifluoromethyl)tetrahydrofuran-2-carboxamide]",< 0.01
9,"COCc1cc(CNC(=O)[C@@H]2O[C@@](C)(C(F)(F)F)[C@@H](C)[C@H]2c2ccc(F)c(F)c2OC)n[nH]1 [Compound 288, (2R,3S,4S,5R)-3-(3,4-difluoro-2-methoxyphenyl)-N-((5-(methoxymethyl)-1H-pyrazol-3-yl)methyl)-4,5-dimethyl-5-(trifluoromethyl)tetrahydrofuran-2-carboxamide]",≥ 1
10,"C[C@H]1[C@@H](c2ccc(F)c(F)c2OCCO)[C@H](C(=O)Nc2cnnn2C)O[C@@]1(C)C(F)(F)F [Compound 573, (2R,3S,4S,5R)-3-(3,4-difluoro-2-(2-hydroxyethoxy)phenyl)-4,5-dimethyl-N-(1-methyl-1H-1,2,3-triazol-5-yl)-5-(trifluoromethyl)tetrahydrofuran-2-carboxamide]",0.1 to 1
11,"CCOc1c([C@@H]2[C@@H](C(=O)Nc3ccnc(S(C)(=N)=O)c3)O[C@](C)(C(F)(F)F)[C@@H]2C)ccc(F)c1F (single isomer, unassigned) [Compound 11]",≥ 1
12,"COc1c([C@H]2[C@H](C(=O)NC3CN(S(C)(=O)=O)C3)O[C@@](C)(C(F)(F)F)[C@H]2C)ccc(F)c1F [Compound 307, (2R,3S,4S,5R)-3-(3,4-difluoro-2-methoxyphenyl)-4,5-dimethyl-N-(1-(methylsulfonyl)azetidin-3-yl)-5-(trifluoromethyl)tetrahydrofuran-2-carboxamide]",≥ 1
13,"Cc1nn(C(F)F)cc1NC(=O)[C@@H]1O[C@@](C)(C(F)(F)F)[C@@H](C)[C@H]1c1ccc(F)c(F)c1OCCO [Compound 536, (2R,3S,4S,5R)-3-(3,4-difluoro-2-(2-hydroxyethoxy)phenyl)-N-(1-(difluoromethyl)-3-methyl-1H-pyrazol-4-yl)-4,5-dimethyl-5-(trifluoromethyl)tetrahydrofuran-2-carboxamide]",< 0.01

# The remaining lines, values ahead:
row,IC50 [µM],SMILES
1,< 0.01,"COc1c([C@H]2[C@H](C(=O)Nc3ccnc(N4CCNCC4=O)c3)O[C@@](C)(C(F)(F)F)[C@H]2C)ccc(F)c1F [Compound 411, (2R,3S,4S,5R)-3-(3,4-difluoro-2-methoxyphenyl)-4,5-dimethyl-N-(2-(2-oxopiperazin-1-yl)pyridin-4-yl)-5-(trifluoromethyl)-tetrahydrofuran-2-carboxamide]"
2,< 0.01,"C[C@H]1[C@@H](c2ccc(F)c(F)c2OCCO)[C@H](C(=O)Nc2ccnc(CO)c2)O[C@@]1(C)C(F)(F)F [Compound 537, (2R,3S,4S,5R)-3-(3,4-difluoro-2-(2-hydroxyethoxy)phenyl)-N-(2-(hydroxymethyl)pyridin-4-yl)-4,5-dimethyl-5-(trifluoromethyl)tetrahydrofuran-2-carboxamide]"
3,< 0.01,"COc1c([C@H]2[C@H](C(=O)Nc3cc(C4(N)COC4)ncc3F)O[C@@](C)(C(F)(F)F)[C@H]2C)ccc(F)c1F [Compound 341, (2R,3S,4S,5R)-N-(2-(3-aminooxetan-3-yl)-5-fluoropyridin-4-yl)-3-(3,4-difluoro-2-methoxyphenyl)-4,5-dimethyl-5-(trifluoromethyl)-tetrahydrofuran-2-carboxamide]"
4,≥ 1,"COc1c([C@H]2[C@H](C(=O)NC3CN(C)C3)O[C@@](C)(C(F)(F)F)[C@H]2C)ccc(F)c1F [Compound 278, (2R,3S,4S,5R)-3-(3,4-difluoro-2-methoxyphenyl)-4,5-dimethyl-N-(1-methylazetidin-3-yl)-5-(trifluoromethyl)tetrahydrofuran-2-carboxamide]"
5,0.01 to 0.1,"Cc1nn(C(F)F)cc1NC(=O)[C@@H]1O[C@@](C)(C(F)(F)F)[C@@H](C)[C@H]1c1ccc(F)c(F)c1CO [Compound 668, (2R,3S,4S,5R)-3-(3,4-difluoro-2-(hydroxymethyl)phenyl)-N-(1-(difluoromethyl)-3-methyl-1H-pyrazol-4-yl)-4,5-dimethyl-5-(trifluoromethyl)tetrahydrofuran-2-carboxamide]"
6,< 0.01,"COc1c([C@H]2[C@H](C(=O)Nc3ccnc(C(C)(O)CO)c3)O[C@@](C)(C(F)(F)F)[C@H]2C)ccc(F)c1F (relative stereo) [Compound 3, rel-(2R*,3S*,4S*,5R*)-3-(3,4-difluoro-2-methoxyphenyl)-N-(2-(1,2-dihydroxypropan-2-yl)pyridin-4-yl)-4,5-dimethyl-5-(trifluoromethyl)tetrahydrofuran-2-carboxamide]"
7,0.01 to 0.1,"COc1c([C@H]2[C@H](C(=O)Nc3cncn3C)O[C@@](C)(C(F)(F)F)[C@H]2C)ccc(F)c1F [Compound 313, (2R,3S,4S,5R)-3-(3,4-difluoro-2-methoxyphenyl)-4,5-dimethyl-N-(1-methyl-1H-imidazol-5-yl)-5-(trifluoromethyl)-tetrahydrofuran-2-carboxamide]"
8,0.01 to 0.1,"COc1c([C@H]2[C@H](C(=O)Nc3cnc(CO)n3C)O[C@@](C)(C(F)(F)F)[C@H]2C)ccc(F)c1F [Compound 21, (2R,3S,4S,5R)-3-(3,4-difluoro-2-methoxy-phenyl)-N-[2-(hydroxymethyl)-3-methyl-imidazol-4-yl]-4,5-dimethyl-5-(trifluoromethyl)tetrahydrofuran-2-carboxamide]"
9,≥ 1,"Cc1nn(CCO)cc1NC(=O)[C@H]1O[C@](C)(C(F)(F)F)[C@H](C)[C@@H]1c1ccc(F)c(F)c1OC(F)F (single isomer, unassigned) [Compound 75]"
10,0.01 to 0.1,"C[C@H]1[C@@H](c2ccc(F)c(F)c2OC(F)F)[C@H](C(=O)Nc2ccc(CCO)nc2)O[C@@]1(C)C(F)(F)F (single isomer, unassigned) [Compound 460]"
11,< 0.01,"COc1c([C@H]2[C@H](C(=O)Nc3ccc(C(=O)O)nc3)O[C@@](C)(C(F)(F)F)[C@H]2C)ccc(F)c1F [Compound 19, 5-[[(2R,3S,4S,5R)-3-(3,4-difluoro-2-methoxy-phenyl)-4,5-dimethyl-5-(trifluoromethyl)tetrahydrofuran-2-carbonyl]amino]pyridine-2-carboxylic acid]"
12,≥ 1,"COc1c([C@H]2[C@H](C(=O)NC(C)c3ccc(C)c(F)c3)O[C@@](C)(C(F)(F)F)[C@H]2C)ccc(F)c1F (stereo partly drawn) [Compound 308, (2R,3S,4S,5R)-3-(3,4-difluoro-2-methoxyphenyl)-N-(1-(3-fluoro-4-methylphenyl)ethyl)-4,5-dimethyl-5-(trifluoromethyl)tetrahydrofuran-2-carboxamide]"
13,< 0.01,"CNC1(c2cc(NC(=O)[C@@H]3O[C@@](C)(C(F)(F)F)[C@@H](C)[C@H]3c3ccc(F)c(F)c3OC)ccn2)COC1 [Compound 361, (2R,3S,4S,5R)-3-(3,4-difluoro-2-methoxyphenyl)-4,5-dimethyl-N-(2-(3-(methylamino)oxetan-3-yl)pyridin-4-yl)-5-(trifluoromethyl)tetrahydrofuran-2-carboxamide]"
